Reference: ChEMBL document CHEMBL4138079, “New cycloartane type-triterpenoids from the areal parts of Caragana sukiensis and their biological activities” (Eur J Med Chem, 2017)
pIC50: −log10 of the molar value.

Tests used:
[1] = system: Spodoptera litura; assay: Insecticidal activity in Spodoptera litura third-instar larvae assessed as larval mortality at 5 ug/cm2 after 24 hrs by leaf disk method relative to control; type: functional; settings: foliar
[2] = system: HEK293; assay: Cytotoxicity against human HEK293 cells assessed as reduction in cell viability after 48 hrs by MTT assay; type: cell-based; settings: HEK293, 48 h
[3] = system: MCF7; assay: Cytotoxicity against human MCF7 cells assessed as reduction in cell viability after 48 hrs by MTT assay; type: functional, cell-based; settings: MCF7, 48 h
[4] = system: Spodoptera litura; assay: Antifeedant activity in Spodoptera litura third-instar larvae assessed as larval duration time after 24 hrs by leaf disk method (reference value: 10.1 +/- 0.1 day); type: functional
[5] = system: Spodoptera litura; assay: Antifeedant activity in Spodoptera litura assessed as pupal weight after 24 hrs by leaf disk method (reference value: 0.245 +/- 0.02 g); type: functional
[6] = system: A549; assay: Cytotoxicity against human A549 cells assessed as reduction in cell viability after 48 hrs by MTT assay; type: functional, cell-based; settings: A549, 48 h
[7] = system: Spodoptera litura; assay: Antifeedant activity in Spodoptera litura third-instar larvae assessed as increase in feeding deterrence by measuring antifeedant index at 5 ug/cm2 after 24 hrs by leaf disk method; type: functional
[8] = system: Spodoptera litura; assay: Antifeedant activity in Spodoptera litura third-instar larvae assessed as increase in feeding deterrence after 24 hrs by leaf disk method; type: functional
[9] = system: Spodoptera litura; assay: Antifeedant activity in Spodoptera litura assessed as pupal mortality after 24 hrs by leaf disk method (reference value: 0%); type: functional
[10] = system: DU-145; assay: Cytotoxicity against human DU145 cells assessed as reduction in cell viability after 48 hrs by MTT assay; type: functional, cell-based; settings: DU-145, 48 h
[11] = system: HeLa; assay: Cytotoxicity against human HeLa cells assessed as reduction in cell viability after 48 hrs by MTT assay; type: functional, cell-based
[12] = system: Spodoptera litura; assay: Insecticidal activity in Spodoptera litura third-instar larvae assessed as increase in larval mortality at 2.8 ug/cm2 after 24 hrs by leaf disk method relative to control; type: functional; settings: foliar
[13] = system: Spodoptera litura; assay: Toxicity in Spodoptera litura third-instar larvae assessed as increase in larval mortality after 24 hrs by leaf disk method; type: organism-based; settings: in vivo
[14] = system: Spodoptera litura; assay: Antifeedant activity in Spodoptera litura third-instar larvae assessed as increase in feeding deterrence by measuring antifeedant index at 2.8 ug/cm2 after 24 hrs by leaf disk method; type: functional

| SMILES | mortality at 5 µg/cm2 [1] [%] | pIC50 [2] | pIC50 [3] | Time [4] [days] | Activity [5] [g] | pIC50 [6] | Activity_index [7] | ED50 [8] [microg/cm2] | mortality [9] [%] | pIC50 [10] | pIC50 [11] | mortality at 2.8 µg/cm2 [12] [%] | LD50 [13] [microg/cm2] | Activity_index [14] |
| --- | --- | --- | --- | --- | --- | --- | --- | --- | --- | --- | --- | --- | --- | --- |
| CC1(C)C[C@@H](O)[C@]2(C)CC[C@]3(C)C(=CC[C@@H]4[C@@]5(C)CC[C@H](O)[C@](C)(CO)[C@@H]5CC[C@]43C)[C@@H]2C1 [SOYASAPOGENOL B] | 11.6 | 3.91 | 5.63 | 12.1 | 0.251 | 5.68 | 68.1 | 5.22 | 96.7 | 4.96 | 5.46 | – | – | – |
| C[C@@H]1C[C@H]([C@H](O)C(C)(C)O)O[C@H]2O[C@H](O)[C@@]3(C)[C@@H]4CC[C@H]5C(C)(C)[C@@H](O[C@@H]6OC[C@@H](O)[C@H](O)[C@H]6O)CC[C@@]56C[C@@]46CC[C@]3(C)[C@H]21 | 19.4 | 4.10 | 4.36 | 11.8 | 0.264 | 4.43 | 59.3 | 3.61 | 92.4 | 4.23 | 4.24 | – | – | – |
| C/C=C(\C)C(=O)O[C@H]1C[C@@H](OC(C)=O)[C@@]2(C(=O)OC)CO[C@H]3[C@@H](O)[C@@](C)([C@]45O[C@@]4(C)[C@H]4C[C@@H]5O[C@@H]5OC=C[C@@]54O)[C@H]4[C@]1(CO[C@]4(O)C(=O)OC)[C@@H]32 [AZADIRACTIN] | – | – | – | – | – | – | – | 1.8 | – | – | – | 100 | 0.84 | 99.1 |
| COc1cccc2c1C(=O)c1c(O)c3c(c(O)c1C2=O)C[C@@](O)(C(=O)CO)C[C@@H]3O[C@H]1C[C@H](N)[C@H](O)[C@H](C)O1 [DOXORUBICIN] | – | – | – | – | – | 5.71 | – | – | – | 5.79 | 5.96 | – | – | – |
| C[C@@H]1C[C@H]([C@H](O)C(C)(C)O)O[C@H]2O[C@H](O)[C@@]3(C)[C@@H]4CC[C@H]5C(C)(C)C(=O)CC[C@@]56C[C@@]46CC[C@]3(C)[C@H]21 | 11.5 | 3.78 | 4.41 | 12.6 | 0.221 | 4.44 | 56.4 | 1.195 | 88.5 | 4.27 | 4.26 | – | – | – |
| CC(=O)O[C@H]1[C@H](O[C@H]2CC[C@]34C[C@]35CC[C@]3(C)[C@@H]([C@@]6(C)CC[C@@H](C(C)(C)O)O6)[C@@H](O)C[C@@]3(C)[C@@H]5C[C@H](O)[C@H]4C2(C)C)OC[C@@H](O)[C@@H]1O | 19.3 | 3.92 | 5.53 | 13.4 | 0.219 | 5.65 | 64.1 | 1.689 | 90.1 | 4.95 | 5.01 | – | – | – |
| CC1(C)CC[C@]2(C)CC[C@]3(C)C(=CC[C@@H]4[C@@]5(C)CC[C@H](O)C(C)(C)[C@@H]5CC[C@]43C)[C@@H]2C1 [beta-AMYRIN] | 10.9 | 4.03 | 4.45 | 11.5 | 0.232 | 4.63 | 59.4 | 28.69 | 89.9 | 4.55 | 4.55 | – | – | – |
| CC(C)(O)[C@@H]1CC[C@](C)([C@H]2[C@@H](O)C[C@@]3(C)[C@@H]4C[C@H](O)[C@H]5C(C)(C)[C@@H](O[C@@H]6OC[C@@H](O)[C@H](O)[C@H]6O)CC[C@@]56C[C@@]46CC[C@]23C)O1 | 18.2 | 4.00 | 4.51 | 13.4 | 0.212 | 4.54 | 70.1 | 15.05 | 90.9 | 4.71 | 4.76 | – | – | – |
| CC1(C)C[C@@H](O)[C@]2(C)CC[C@]3(C)C(=CC[C@@H]4[C@@]5(C)CCC(=O)[C@](C)(CO)[C@@H]5CC[C@]43C)[C@@H]2C1 | 0 | 4.02 | 4.54 | 11.1 | 0.249 | 4.67 | 21.8 | – | 11.2 | 4.59 | 4.73 | – | – | – |
| C[C@@H]1C[C@H]([C@H](O)C(C)(C)O)O[C@H]2OC(=O)[C@@]3(C)[C@@H]4CC[C@H]5C(C)(C)C(=O)C=C[C@@]56C[C@@]46CC[C@]3(C)[C@H]21 | 11.3 | 3.80 | 4.57 | 11.9 | 0.226 | 4.53 | 61.2 | 12.239 | 91.3 | 4.44 | 4.20 | – | – | – |
| C[C@@H]1C[C@H]([C@H](O)C(C)(C)O)O[C@H]2O[C@H](O)[C@@]3(C)[C@@H]4CC[C@H]5C(C)(C)[C@@H](O)CC[C@@]56C[C@@]46CC[C@]3(C)[C@H]21 | 86.7 | 3.91 | 4.23 | – | – | 4.29 | 91.8 | 0.59 | – | 4.21 | 4.20 | – | 0.84 | – |
| C[C@@H]1C[C@H]([C@H](O)C(C)(C)O)O[C@H]2OC(=O)[C@@]3(C)[C@@H]4CC[C@H]5C(C)(C)C(=O)CC[C@@]56C[C@@]46CC[C@]3(C)[C@H]21 | 94.6 | 4.10 | 4.61 | – | – | 4.79 | 93.6 | 0.67 | – | 4.65 | 4.75 | – | 0.91 | – |
